Experimental data as given in ChEMBL document CHEMBL6083262, “Stereorandomized Oncocins with Preserved Ribosome Binding and Antibacterial Activity” (J Med Chem, 2024).
Converted amounts (≈) assume the structure as drawn. The source made the active and inactive calls. No cut-off for these calls is given here. Non-standard residues stand in square brackets, D forms with d. Residues, ends and D or L forms follow the SMILES beside them. ξ: configuration not given here. ξY = NC(Cc1ccc(O)cc1)C(=O)O; ξR = N=C(N)NCCCC(N)C(=O)O; ξN = NC(=O)CC(N)C(=O)O; ξI = CCC(C)C(N)C(=O)O; ξP = O=C(O)C1CCCN1

Experiments:
Staphylococcus aureus [1] = test: Antimicrobial activity against methicillin-resistant Staphylococcus aureus COL incubated for 16 to 20 hrs in 12.5 % muller hinton medium by broth microdilution method; format: functional; conditions: time 16-20 hrs
Lipid bilayer [2] = test: Induction of membrane disruption in egg yolk phosphatidyl choline at 10 ug/ml by measuring vesicle leakage; conditions: dose 10.0 µg/ml
Klebsiella pneumoniae [3] = test: Bacteriostatic activity against Klebsiella pneumoniae assessed as detachment of inner membrane from outer membrane by measuring a large void at 8 times MIC in full muller hinton medium by transmission electron microscopic analysis; format: functional, organism-based
Enterobacter cloacae [4] = test: Antibacterial activity against multidrug-resistant Enterobacter cloacae incubated for 16 to 20 hrs in 12.5 % muller hinton medium by broth microdilution method; format: functional; conditions: time 16-20 hrs
Escherichia coli [5] = test: Bacteriostatic activity against Escherichia coli assessed as small intracellular vesicles at 8 times MIC in full muller hinton medium by transmission electron microscopic analysis; format: functional, organism-based
[6] = Hemolytic activity in human RBC incubated for 4 hrs; format: toxicity, cell-based; conditions: erythrocyte
Pseudomonas aeruginosa [7] = test: Antibacterial activity against multidrug-resistant Pseudomonas aeruginosa PA14 2P4 harboring pmrB mutant incubated for 16 to 20 hrs in full muller hinton medium by broth microdilution method; format: functional; conditions: time 16-20 hrs
Escherichia coli [8] = test: Bacteriostatic activity against Escherichia coli assessed as detachment of inner membrane from outer membrane by measuring a large void at 8 times MIC in full muller hinton medium by transmission electron microscopic analysis; format: functional, organism-based
Lipid bilayer [9] = test: Induction of membrane disruption in egg yolk phosphatidyl glycerol at 10 ug/ml by measuring vesicle leakage; conditions: dose 10.0 µg/ml
Staphylococcus aureus [10] = test: Antimicrobial activity against methicillin-resistant Staphylococcus aureus COL incubated for 16 to 20 hrs in full muller hinton medium by broth microdilution method; format: functional; conditions: time 16-20 hrs
rRNA = test: Binding affinity to [gamma32 P-ATP] labeled Escherichia coli MG1655 23S ribosomal RNA (5-CCCTTGGGACCTACTTC-3') at U2506 position assessed as increase in band intensity at 1 uM incubated for 2.5 hrs in full muller hinton medium by CMCT based gel electrophoresis; format: nucleic-acid assay
Pseudomonas aeruginosa [11] = test: Antibacterial activity against multidrug-resistant Pseudomonas aeruginosa PA14 incubated for 16 to 20 hrs in full muller hinton medium by broth microdilution method; format: functional; conditions: time 16-20 hrs
Escherichia coli [12] = test: Bacteriostatic activity against Escherichia coli assessed as membrane perturbation at 8 times MIC in full muller hinton medium by transmission electron microscopic analysis; format: functional, organism-based
Klebsiella pneumoniae [13] = test: Bacteriostatic activity against Klebsiella pneumoniae assessed as membrane perturbation at 8 times MIC in full muller hinton medium by transmission electron microscopic analysis; format: functional, organism-based
Escherichia coli [14] = test: Bacteriostatic activity against Escherichia coli at 8 times MIC in full muller hinton medium by Time-kill assay; format: functional, organism-based
Enterobacter cloacae [15] = test: Antibacterial activity against multidrug-resistant Enterobacter cloacae incubated for 16 to 20 hrs in full muller hinton medium by broth microdilution method; format: functional; conditions: time 16-20 hrs
Klebsiella pneumoniae [16] = test: Bacteriostatic activity against Klebsiella pneumoniae assessed as small intracellular vesicles at 8 times MIC in full muller hinton medium by transmission electron microscopic analysis; format: functional, organism-based
Pseudomonas aeruginosa [17] = test: Antibacterial activity against multidrug-resistant Pseudomonas aeruginosa clinical isolate ZEM9A incubated for 16 to 20 hrs in full muller hinton medium by broth microdilution method; format: functional; conditions: time 16-20 hrs
Klebsiella pneumoniae [18] = test: Bacteriostatic activity against Klebsiella pneumoniae at 8 times MIC in full muller hinton medium by Time-kill assay; format: functional, organism-based
Pseudomonas aeruginosa [19] = test: Antibacterial activity against multidrug-resistant Pseudomonas aeruginosa clinical isolate ZEM9A incubated for 16 to 20 hrs in 12.5 % muller hinton medium by broth microdilution method; format: functional; conditions: time 16-20 hrs
Klebsiella pneumoniae [20] = test: Antimicrobial activity against Klebsiella pneumoniae NCTC 418 incubated for 16 to 20 hrs in 12.5 % muller hinton medium by broth microdilution method; format: functional; conditions: time 16-20 hrs
Pseudomonas aeruginosa [21] = test: Antimicrobial activity against Pseudomonas aeruginosa PAO1 incubated for 16 to 20 hrs in full muller hinton medium by broth microdilution method; format: functional; conditions: time 16-20 hrs
Pseudomonas aeruginosa [22] = test: Antimicrobial activity against Pseudomonas aeruginosa PAO1 incubated for 16 to 20 hrs in 12.5 % muller hinton medium by broth microdilution method; format: functional; conditions: time 16-20 hrs
Pseudomonas aeruginosa [23] = test: Antibacterial activity against multidrug-resistant Pseudomonas aeruginosa PA14 incubated for 16 to 20 hrs in 12.5 % muller hinton medium by broth microdilution method; format: functional; conditions: time 16-20 hrs
Klebsiella pneumoniae [24] = test: Antibacterial activity against multidrug-resistant Klebsiella pneumoniae clinical isolate OXA-48 incubated for 16 to 20 hrs in 12.5 % muller hinton medium by broth microdilution method; format: functional; conditions: time 16-20 hrs
Klebsiella pneumoniae [25] = test: Antibacterial activity against multidrug-resistant Klebsiella pneumoniae clinical isolate OXA-48 incubated for 16 to 20 hrs in full muller hinton medium by broth microdilution method; format: functional; conditions: time 16-20 hrs
Pseudomonas aeruginosa [26] = test: Antibacterial activity against multidrug-resistant Pseudomonas aeruginosa PA14 4.18 harboring pmrB mutant incubated for 16 to 20 hrs in full muller hinton medium by broth microdilution method; format: functional; conditions: time 16-20 hrs
Pseudomonas aeruginosa [27] = test: Antibacterial activity against multidrug-resistant Pseudomonas aeruginosa PA14 4.18 harboring pmrB mutant incubated for 16 to 20 hrs in 12.5 % muller hinton medium by broth microdilution method; format: functional; conditions: time 16-20 hrs
Pseudomonas aeruginosa [28] = test: Antibacterial activity against multidrug-resistant Pseudomonas aeruginosa PA14 4.13 harboring phoQ mutant incubated for 16 to 20 hrs in full muller hinton medium by broth microdilution method; format: functional; conditions: time 16-20 hrs
Klebsiella pneumoniae [29] = test: Antimicrobial activity against Klebsiella pneumoniae NCTC 418 incubated for 16 to 20 hrs in full muller hinton medium by broth microdilution method; format: functional; conditions: time 16-20 hrs
Escherichia coli [30] = test: Antimicrobial activity against Escherichia coli W3110 incubated for 16 to 20 hrs in full muller hinton medium by broth microdilution method; format: functional; conditions: time 16-20 hrs
Pseudomonas aeruginosa [31] = test: Antibacterial activity against multidrug-resistant Pseudomonas aeruginosa clinical isolate ZEM-1A incubated for 16 to 20 hrs in full muller hinton medium by broth microdilution method; format: functional; conditions: time 16-20 hrs
Pseudomonas aeruginosa [32] = test: Antibacterial activity against multidrug-resistant Pseudomonas aeruginosa clinical isolate ZEM-1A incubated for 16 to 20 hrs in 12.5 % muller hinton medium by broth microdilution method; format: functional; conditions: time 16-20 hrs
Acinetobacter baumannii [33] = test: Antimicrobial activity against Acinetobacter baumannii ATCC 19606 incubated for 16 to 20 hrs in full muller hinton medium by broth microdilution method; format: functional; conditions: time 16-20 hrs
Pseudomonas aeruginosa [34] = test: Antibacterial activity against multidrug-resistant Pseudomonas aeruginosa PA14 4.13 harboring phoQ mutant incubated for 16 to 20 hrs in 12.5 % muller hinton medium by broth microdilution method; format: functional; conditions: time 16-20 hrs
Acinetobacter baumannii [35] = test: Antimicrobial activity against Acinetobacter baumannii ATCC 19606 incubated for 16 to 20 hrs in 12.5 % muller hinton medium by broth microdilution method; format: functional; conditions: time 16-20 hrs
Bacteria = test: Binding affinity to his-tagged DnaK (unknown origin) expressed in Escherichia coli BL21 (DE3) in dilute muller hinton medium by microscale thermophoresis analysis

Structure (SMILES) | MIC (Staphylococcus aureus [1]) [µg/mL] | MHC [6] [µg/mL] | MIC (Pseudomonas aeruginosa [7]) [µg/mL] | MIC (Staphylococcus aureus [10]) [µg/mL] | Activity (rRNA) | MIC (Pseudomonas aeruginosa [11]) [µg/mL] | MIC (Enterobacter cloacae [15]) [µg/mL] | MIC (Pseudomonas aeruginosa [17]) [µg/mL] | MIC (Klebsiella pneumoniae [20]) [µg/mL] | MIC (Pseudomonas aeruginosa [21]) [µg/mL] | MIC (Klebsiella pneumoniae [25]) [µg/mL] | MIC (Pseudomonas aeruginosa [26]) [µg/mL] | MIC (Pseudomonas aeruginosa [28]) [µg/mL] | MIC (Klebsiella pneumoniae [29]) [µg/mL] | MIC (Pseudomonas aeruginosa [31]) [µg/mL] | MIC (Pseudomonas aeruginosa [32]) [µg/mL] | MIC (Acinetobacter baumannii [33]) [µg/mL] | also measured
CCC(C)C(NC(=O)C(CCCNC(=N)N)NC(=O)C(CCCNC(=N)N)NC(=O)C1CCCN1C(=O)C1CCCN1C(=O)[C@H](CCCNC(=N)N)NC(=O)[C@@H]1CCCN1C(=O)[C@H](CCCNC(=N)N)NC(=O)[C@@H]1CCCN1C(=O)[C@H](CC(C)C)NC(=O)[C@H](Cc1ccc(O)cc1)NC(=O)[C@@H]1CCCN1C(=O)[C@@H]1CCCN1C(=O)[C@H](CCCCN)NC(=O)[C@H](CC(=O)O)NC(=O)[C@@H](N)C(C)C)C(=O)NC(Cc1ccc(O)cc1)C(=O)NC(CC(N)=O)C(=O)NC(CCCNC(=N)N)C(N)=O (stereo partly specified) (H-VDKPPYLPRPR[ξP][ξP][ξR][ξR][ξI][ξY][ξN][ξR]-NH2) | > 16 | > 1000 | > 64 | > 64 | Active | > 64 | > 64 | > 64 | – | – | – | – | – | – | – | – | – | Activity (Lipid bilayer [2]): Active; Activity (Klebsiella pneumoniae [3]): Active; MIC (Enterobacter cloacae [4]): 0.5 µg/mL (≈ 0.209 µM); Activity (Escherichia coli [5]): Active; Activity (Escherichia coli [8]): Active; Activity (Lipid bilayer [9]): Active; Activity (Escherichia coli [12]): Active; Few Membrane Perturbation Observed; Activity (Klebsiella pneumoniae [13]): Active; Few Membrane Perturbation Observed; Activity (Escherichia coli [14]): Active; Activity (Klebsiella pneumoniae [16]): Active; Activity (Klebsiella pneumoniae [18]): Active
CC[C@H](C)[C@H](NC(=O)[C@H](CCCNC(=N)N)NC(=O)[C@H](CCCNC(=N)N)NC(=O)[C@@H]1CCCN1C(=O)[C@@H]1CCCN1C(=O)[C@H](CCCNC(=N)N)NC(=O)[C@@H]1CCCN1C(=O)[C@H](CCCNC(=N)N)NC(=O)[C@@H]1CCCN1C(=O)[C@@H](CC(C)C)NC(=O)[C@H](Cc1ccc(O)cc1)NC(=O)[C@@H]1CCCN1C(=O)[C@@H]1CCCN1C(=O)[C@H](CCCCN)NC(=O)[C@H](CC(=O)O)NC(=O)[C@@H](N)C(C)C)C(=O)N[C@@H](Cc1ccc(O)cc1)C(=O)N[C@@H](CC(N)=O)C(=O)N[C@@H](CCCNC(=N)N)C(N)=O (H-VDKPPY[dL]PRPRPPRRIYNR-NH2) | > 64 | > 1000 | > 64 | > 64 | inactive | > 32 | > 64 | > 64 | > 16 | > 64 | > 64 | > 32 | > 32 | > 64 | > 64 | > 64 | > 64 | MIC (Pseudomonas aeruginosa [19]): > 64 µg/mL; MIC (Pseudomonas aeruginosa [22]): > 16 µg/mL; MIC (Pseudomonas aeruginosa [23]): > 32 µg/mL; MIC (Klebsiella pneumoniae [24]): > 64 µg/mL; MIC (Pseudomonas aeruginosa [27]): > 32 µg/mL; MIC (Escherichia coli [30]): > 64 µg/mL; MIC (Pseudomonas aeruginosa [34]): > 32 µg/mL; MIC (Acinetobacter baumannii [35]): > 16 µg/mL
CC[C@@H](C)[C@@H](NC(=O)[C@@H](CCCNC(=N)N)NC(=O)[C@@H](CCCNC(=N)N)NC(=O)[C@H]1CCCN1C(=O)[C@H]1CCCN1C(=O)[C@@H](CCCNC(=N)N)NC(=O)[C@H]1CCCN1C(=O)[C@@H](CCCNC(=N)N)NC(=O)[C@H]1CCCN1C(=O)[C@@H](CC(C)C)NC(=O)[C@@H](Cc1ccc(O)cc1)NC(=O)[C@H]1CCCN1C(=O)[C@H]1CCCN1C(=O)[C@@H](CCCCN)NC(=O)[C@@H](CC(=O)O)NC(=O)[C@H](N)C(C)C)C(=O)N[C@H](Cc1ccc(O)cc1)C(=O)N[C@H](CC(N)=O)C(=O)N[C@H](CCCNC(=N)N)C(N)=O (H-[dV][dD][dK][dP][dP][dY][dL][dP][dR][dP][dR][dP][dP][dR][dR][dI][dY][dN][dR]-NH2) | – | > 1000 | > 64 | > 64 | inactive | > 64 | > 64 | > 64 | > 16 | > 64 | > 64 | > 64 | > 64 | > 64 | > 64 | > 64 | > 64 | Activity (Bacteria): inactive
